Data: US20130072430A1, “METHODS FOR TREATMENT OR PROPHYLAXIS OF KIDNEY OR LIVER DYSFUNCTION” (NPS PHARMACEUTICALS, INC., priority 2010, published 2013)

System: Human patients with short bowel syndrome
Test: Example 1: liver diagnostic biomarkers (total bilirubin, ALT, AST, ALP) in short bowel syndrome patients, every four weeks for 24 weeks
Assay type: in vivo
Set-up: AST (SGOT) Change from Baseline, Median / ALT (SGPT), Median / TOTAL BILIRUBIN, Median / TOTAL BILIRUBIN Change from Baseline, Median / ALT (SGPT) Change from Baseline, Median / AST (SGOT), Median: unit not given here
Description: Human patients with short bowel syndrome were divided into three groups: a control group (16 total individuals) to receive placebo, an experimental group (35 total individuals) to receive teduglutide at 0.05 mg/kg/day throughout the study, and an experimental group (32 total individuals) to receive teduglutide at 0.1 mg/kg/day throughout the study. Patients were treated by subcutaneous injection of placebo or the appropriate dose of teduglutide. As individuals with short bowel syndrome are likely to experience associated liver and kidney disease, known biomarkers of liver and kidney function were monitored every four weeks, for 24 weeks. The liver biomarkers tested included total bilirubin, ALT and AST and ALP. The kidney biomarkers tested included urea nitrogen, creatinine and GFR. Before administration of placebo or teduglutide, diagnostic biomarker levels were tested to establish a baseline for each individual.
To visualize the effect of GLP-2 on the levels of the diagnostic biomarkers, the average change from baseline was calculated for the placebo and teduglutide treated groups for each visit after a baseline was established. The average change from baseline of each group is depicted in FIGS. […]. The numerical figures for each diaanostic biomarker at each time point are depicted in Table 1.
The efficacy of teduglutide in treating liver dysfunction was further tested by sorting the data into two groups: individuals with abnormal baseline values of liver diagnostic biomarkers; and individuals with normal baseline values of liver diagnostic biomarkers. The mean diagnostic biomarker change from baseline for these two groups is shown for ALT (FIGS. 5 and 6) and AST (FIGS. 7 and 8). […] These changes were significant when compared to baseline levels for the group, and when compared to placebo (see FIGS. 5 and 7).
The raw data for this sorting is reproduced in Table 2 below.

[1] = Week 4, range <−5%, teduglutide 0.05 mg/kg/day
[2] = Week 4, range <−5%, teduglutide 0.1 mg/kg/day
[3] = Week 4, range >5%, teduglutide 0.05 mg/kg/day
[4] = Week 4, range >5%, teduglutide 0.1 mg/kg/day
[5] = Week 4, range −5%<= and <=5%, teduglutide 0.05 mg/kg/day
[6] = Week 4, range −5%<= and <=5%, teduglutide 0.1 mg/kg/day
[7] = Week 8, range <−5%, teduglutide 0.05 mg/kg/day
[8] = Week 8, range <−5%, teduglutide 0.1 mg/kg/day
[9] = Week 8, range >5%, teduglutide 0.05 mg/kg/day
[10] = Week 8, range >5%, teduglutide 0.1 mg/kg/day
[11] = Week 8, range −5%<= and <=5%, teduglutide 0.05 mg/kg/day
[12] = Week 8, range −5%<= and <=5%, teduglutide 0.1 mg/kg/day
[13] = Week 12, range <−5%, teduglutide 0.05 mg/kg/day
[14] = Week 12, range <−5%, teduglutide 0.1 mg/kg/day
[15] = Week 12, range >5%, teduglutide 0.05 mg/kg/day
[16] = Week 12, range >5%, teduglutide 0.1 mg/kg/day

CC[C@H](C)[C@H](NC(=O)[C@H](Cc1ccccc1)NC(=O)[C@H](CC(=O)O)NC(=O)[C@H](CCCNC(=N)N)NC(=O)[C@H](C)NC(=O)[C@H](C)NC(=O)[C@H](CC(C)C)NC(=O)[C@H](CC(N)=O)NC(=O)[C@H](CC(=O)O)NC(=O)[C@H](CC(C)C)NC(=O)[C@@H](NC(=O)[C@@H](NC(=O)[C@H](CC(N)=O)NC(=O)[C@H](CCSC)NC(=O)[C@H](CCC(=O)O)NC(=O)[C@H](CC(=O)O)NC(=O)[C@H](CO)NC(=O)[C@H](Cc1ccccc1)NC(=O)[C@H](CO)NC(=O)CNC(=O)[C@H](CC(=O)O)NC(=O)CNC(=O)[C@@H](N)Cc1c[nH]cn1)[C@@H](C)O)[C@@H](C)CC)C(=O)N[C@@H](CC(N)=O)C(=O)N[C@@H](Cc1c[nH]c2ccccc12)C(=O)N[C@@H](CC(C)C)C(=O)N[C@H](C(=O)N[C@@H](CCC(N)=O)C(=O)N[C@H](C(=O)N[C@@H](CCCCN)C(=O)N[C@H](C(=O)N[C@H](C(=O)N[C@@H](CC(=O)O)C(=O)O)[C@@H](C)O)[C@@H](C)CC)[C@@H](C)O)[C@@H](C)CC [teduglutide]
AST (SGOT), Median (0.10 mg/kg/day, DW20): 30.0 | TOTAL BILIRUBIN Change from Baseline, Mean (SD) (0.10 mg/kg/day, DW20): −2.7 (14.42) | TOTAL BILIRUBIN Change from Baseline, Median (0.10 mg/kg/day, DW20): 0.0 | TOTAL BILIRUBIN, Mean (SD) (0.10 mg/kg/day, DW20): 10.4 (10.13) | TOTAL BILIRUBIN, Median (0.10 mg/kg/day, DW20): 7.0 | ALKALINE PHOSPHATASE Change from Baseline, Mean (SD) (0.10 mg/kg/day, DW24): −18.9 (67.08) | ALKALINE PHOSPHATASE Change from Baseline, Median (0.10 mg/kg/day, DW24): −21.0 | ALKALINE PHOSPHATASE, Mean (SD) (0.10 mg/kg/day, DW24): 136.7 (85.50) | ALKALINE PHOSPHATASE, Median (0.10 mg/kg/day, DW24): 105.0 | ALT (SGPT) Change from Baseline, Mean (SD) (0.10 mg/kg/day, DW24): −7.3 (32.62) | ALT (SGPT) Change from Baseline, Median (0.10 mg/kg/day, DW24): −4.0 | ALT (SGPT), Mean (SD) (0.10 mg/kg/day, DW24): 42.2 (27.28) | ALT (SGPT), Median (0.10 mg/kg/day, DW24): 37.0 | AST (SGOT) Change from Baseline, Mean (SD) (0.10 mg/kg/day, DW24): −4.8 (23.34) | AST (SGOT) Change from Baseline, Median (0.10 mg/kg/day, DW24): −3.0 | AST (SGOT), Mean (SD) (0.10 mg/kg/day, DW24): 35.3 (18.69) | AST (SGOT), Median (0.10 mg/kg/day, DW24): 32.0 | TOTAL BILIRUBIN Change from Baseline, Mean (SD) (0.10 mg/kg/day, DW24): −2.4 (12.73) | TOTAL BILIRUBIN Change from Baseline, Median (0.10 mg/kg/day, DW24): 0.0 | TOTAL BILIRUBIN, Mean (SD) (0.10 mg/kg/day, DW24): 11.3 (12.28) | TOTAL BILIRUBIN, Median (0.10 mg/kg/day, DW24): 9.0 | ALKALINE PHOSPHATASE change from baseline: patients in range, n(%) [1]: 21(60.0%) | ALT (SGPT) change from baseline: patients in range, n(%) [1]: 22(62.9%) | AST (SGOT) change from baseline: patients in range, n(%) [1]: 21(60.0%) | TOTAL BILIRUBIN change from baseline: patients in range, n(%) [1]: 12(34.3%) | ALKALINE PHOSPHATASE change from baseline: patients in range, n(%) [2]: 17(53.1%) | ALT (SGPT) change from baseline: patients in range, n(%) [2]: 20(62.5%) | AST (SGOT) change from baseline: patients in range, n(%) [2]: 17(53.1%) | TOTAL BILIRUBIN change from baseline: patients in range, n(%) [2]: 16(50.0%) | ALKALINE PHOSPHATASE change from baseline: patients in range, n(%) [3]: 3(8.6%) | ALT (SGPT) change from baseline: patients in range, n(%) [3]: 8(22.9%) | AST (SGOT) change from baseline: patients in range, n(%) [3]: 5(14.3%) | TOTAL BILIRUBIN change from baseline: patients in range, n(%) [3]: 8(22.9%) | ALKALINE PHOSPHATASE change from baseline: patients in range, n(%) [4]: 11(34.4%) | ALT (SGPT) change from baseline: patients in range, n(%) [4]: 10(31.3%) | AST (SGOT) change from baseline: patients in range, n(%) [4]: 10(31.3%) | TOTAL BILIRUBIN change from baseline: patients in range, n(%) [4]: 12(37.5%) | ALKALINE PHOSPHATASE change from baseline: patients in range, n(%) [5]: 6(17.1%) | ALT (SGPT) change from baseline: patients in range, n(%) [5]: 0(0.0%) | AST (SGOT) change from baseline: patients in range, n(%) [5]: 2(5.7%) | TOTAL BILIRUBIN change from baseline: patients in range, n(%) [5]: 6(17.1%) | ALKALINE PHOSPHATASE change from baseline: patients in range, n(%) [6]: 4(12.5%) | ALT (SGPT) change from baseline: patients in range, n(%) [6]: 2(6.3%) | AST (SGOT) change from baseline: patients in range, n(%) [6]: 4(12.5%) | TOTAL BILIRUBIN change from baseline: patients in range, n(%) [6]: 3(9.4%) | ALKALINE PHOSPHATASE change from baseline: patients in range, n(%) [7]: 21(60.0%) | ALT (SGPT) change from baseline: patients in range, n(%) [7]: 16(45.7%) | AST (SGOT) change from baseline: patients in range, n(%) [7]: 16(45.7%) | TOTAL BILIRUBIN change from baseline: patients in range, n(%) [7]: 13(37.1%) | ALKALINE PHOSPHATASE change from baseline: patients in range, n(%) [8]: 24(75.0%) | ALT (SGPT) change from baseline: patients in range, n(%) [8]: 20(62.5%) | AST (SGOT) change from baseline: patients in range, n(%) [8]: 21(65.6%) | TOTAL BILIRUBIN change from baseline: patients in range, n(%) [8]: 16(50.0%) | ALKALINE PHOSPHATASE change from baseline: patients in range, n(%) [9]: 6(17.1%) | ALT (SGPT) change from baseline: patients in range, n(%) [9]: 9(25.7%) | AST (SGOT) change from baseline: patients in range, n(%) [9]: 9(25.7%) | TOTAL BILIRUBIN change from baseline: patients in range, n(%) [9]: 8(22.9%) | ALKALINE PHOSPHATASE change from baseline: patients in range, n(%) [10]: 5(15.6%) | ALT (SGPT) change from baseline: patients in range, n(%) [10]: 8(25.0%) | AST (SGOT) change from baseline: patients in range, n(%) [10]: 5(15.6%) | TOTAL BILIRUBIN change from baseline: patients in range, n(%) [10]: 7(21.9%) | ALKALINE PHOSPHATASE change from baseline: patients in range, n(%) [11]: 2(5.7%) | ALT (SGPT) change from baseline: patients in range, n(%) [11]: 4(11.4%) | AST (SGOT) change from baseline: patients in range, n(%) [11]: 4(11.4%) | TOTAL BILIRUBIN change from baseline: patients in range, n(%) [11]: 4(11.4%) | ALKALINE PHOSPHATASE change from baseline: patients in range, n(%) [12]: 2(6.3%) | ALT (SGPT) change from baseline: patients in range, n(%) [12]: 2(6.3%) | AST (SGOT) change from baseline: patients in range, n(%) [12]: 4(12.5%) | TOTAL BILIRUBIN change from baseline: patients in range, n(%) [12]: 6(18.8%) | ALKALINE PHOSPHATASE change from baseline: patients in range, n(%) [13]: 23(65.7%) | ALT (SGPT) change from baseline: patients in range, n(%) [13]: 19(54.3%) | AST (SGOT) change from baseline: patients in range, n(%) [13]: 19(54.3%) | TOTAL BILIRUBIN change from baseline: patients in range, n(%) [13]: 14(40.0%) | ALKALINE PHOSPHATASE change from baseline: patients in range, n(%) [14]: 19(59.4%) | ALT (SGPT) change from baseline: patients in range, n(%) [14]: 20(62.5%) | AST (SGOT) change from baseline: patients in range, n(%) [14]: 15(46.9%) | TOTAL BILIRUBIN change from baseline: patients in range, n(%) [14]: 14(43.8%) | ALKALINE PHOSPHATASE change from baseline: patients in range, n(%) [15]: 2(5.7%) | ALT (SGPT) change from baseline: patients in range, n(%) [15]: 4(11.4%) | AST (SGOT) change from baseline: patients in range, n(%) [15]: 5(14.3%) | TOTAL BILIRUBIN change from baseline: patients in range, n(%) [15]: 6(17.1%) | ALKALINE PHOSPHATASE change from baseline: patients in range, n(%) [16]: 10(31.3%) | ALT (SGPT) change from baseline: patients in range, n(%) [16]: 7(21.9%) | AST (SGOT) change from baseline: patients in range, n(%) [16]: 10(31.3%) | TOTAL BILIRUBIN change from baseline: patients in range, n(%) [16]: 9(28.1%) | ALKALINE PHOSPHATASE change from baseline: patients in range, n(%) (Week 12, range −5%<= and <=5%, teduglutide 0.05 mg/kg/day): 2(5.7%)
